{
  "source": "patent US4698419A",
  "about": "“Hexapeptide” (Vsesojuzny Kardiologichesky Nauchny Tsentr Akademii …, priority 1984, dated 1987)",
  "key": {"[1]": {"system": "acute hepatitis induced by D-galactosamine hydrochloride", "experiment": "Acute hepatitis induced by D-galactosamine hydrochloride in mice, plasma enzymes", "type": "in vivo, male mice of the line Balb C", "details": "for Concentration of alanine transaminase / Concentration of glutamatedehydrogenase: mouse blood plasma, D-galactosamine hydrochloride 700 mg/kg i.p., hexapeptide 100 μg/kg or prednisolone 5 mg/kg hypodermally, repeated after 6 hours", "procedure": "The study of a hepatoprotective effect of the hexapeptide according to the present invention was carried out in comparison with prednisolone on male mice of the line Balb C.\nThe development of acute hepatitis was induced in mice subjected to a 12-hours' starving by means of D-galactosamine hydrochloride which was administered intraperitoneally diluted in 0.1 ml of a physiological solution in the dose of 700 mg/kg. The control group of animals was administered intraperitoneally with 0.1 ml of a physiological solution. The animals given D-galactosoamine hydrochloride were injected, immediately after its administration, with the hexapeptide according to the present invention (100 μg/kg), prednisolone (5 mg/kg) or a physiological solution (0.1 ml) hypodermally. Repeated injections of the test preparations were made after 6 hours. Each of the groups consisted of 12 animals. The mice were slaughtered by decapitation, blood was collected and in its plasma concentrations of alanine transaminase and glutametedehydrogenase were determined.\nThe statistical processing of the results obtained was effected using t-criterion. The certain value was regarded as the dirrerence at the level of 95% (at P<0.05)."}, "[2]": {"system": "acute liver injury induced by carbon tetrachloride", "experiment": "Acute liver injury induced by carbon tetrachloride in rats, blood enzymes and lethality", "type": "in vivo, male rats of the V-star line", "details": "for Lethality: comparison of the hexapeptide with somatostatin; for Number of rats survived after 48 hours: groups of 13; for Concentration of alanine transaminase / Concentration of glutamatedehydrogenase: rat blood, CCl4, repeated after 6, 24 and 30 hours", "procedure": "The hexapeptide according to the present invention was also studied on an experimental model of an acute liver injury in male rats of the V-star line induced by means of carbon tetrachloride. After a 12-hours' starvation the rats were given CCl4 in the concentration of […] diluted in olive oil intraperitoneally. After administration of CCl4 the rats were injected with the hexapeptide according to the present invention in different doses (10, 30, 100 and 300 μg/kg). Repeated injections of the hexapeptide according to the invention were effected after 6, 24, and 30 hours. The control group of animals was given, instead of the hexapeptide of this invention, a physiological solution (0.2 ml). All the test groups of animals consisted of 13 rats. Concentrations of alanine transaminase and glutamatedehydrogenase were determined in the rats blood.\nA statistical processing in the case of liver injury caused by carbon tetrachloride in respect of the enzymes was effected using t-criterion, while in respect of lethality--by means of .chi.^2 criterion."}, "Acute toxicity LD50": {"experiment": "Acute toxicity LD50", "details": "in vivo"}, "[3]": {"experiment": "Cell composition of the blood and basic hemodynamic characteristics in all experiments", "type": "in vivo", "details": "all of the experiments with the hexapeptide"}, "Solubility of the powder": {"experiment": "Solubility of the powder", "type": "physicochemical", "procedure": "The hexapeptide according to the present invention comprises a white powder well soluble in distilled water, physiological solution, ethanol, insoluble in ether, ethylacetate, benzene. Melting point is 154°-156° C., (α)D^25 =+8.4 (with 0.5 H2 O)."}},
  "note": "No end group written: not given here.",
  "data": [
    {"compound": "C[C@]12C=CC(=O)C=C1CC[C@@H]1[C@@H]2[C@@H](O)C[C@@]2(C)[C@H]1CC[C@]2(O)C(=O)CO", "note": "[prednisolone, reference compound]", "values": [
      {"measurement": "Effect on the values of the studied parameters (alanine transaminase, glutamatedehydrogenase)", "setting": "[1]; D-galactosamine mice, prednisolone 5 mg/kg", "value": "a trend was observed towards reducing"},
      {"measurement": "Effect on the concentration of the enzymes", "setting": "[1]; conventionally employed parenteral dose", "value": "does not provide any pronounced effect"},
      {"measurement": "Concentration of alanine transaminase", "setting": "[1]", "value": "151.2 ± 14.3", "unit": "JU/e"},
      {"measurement": "Concentration of glutamatedehydrogenase", "setting": "[1]", "value": "104.5 ± 10.1", "unit": "JU/e"}
    ]},
    {"compound": "C[C@H](N)C(=O)NCC(=O)N[C@H]1CSSC[C@@H](C(=O)O)NC(=O)[C@H](CO)NC(=O)[C@H]([C@@H](C)O)NC(=O)[C@H](Cc2ccccc2)NC(=O)[C@H]([C@@H](C)O)NC(=O)[C@H](CCCCN)NC(=O)[C@H](Cc2c[nH]c3ccccc23)NC(=O)[C@H](Cc2ccccc2)NC(=O)[C@H](Cc2ccccc2)NC(=O)[C@H](CC(N)=O)NC(=O)[C@H](CCCCN)NC1=O", "note": "[somatostatin, reference compound]", "values": [
      {"measurement": "Lethality", "setting": "[2]", "value": 20, "unit": "%"},
      {"measurement": "Maximum effective dose", "setting": "[2]; comparison with the hexapeptide", "value": 1.5, "unit": "mg/kg"}
    ]},
    {"compound": "FAGFGR [hexapeptide of this invention, phenylalanyl-alanyl-glycyl-phenylalanyl-glycylarginine]", "values": [
      {"measurement": "Effect on the increase of concentrations of alanine transaminase", "setting": "[1]; D-galactosamine mice, 100 μg/kg", "value": "substantially fully blocked the increase"},
      {"measurement": "Reduction of the concentration of glutamatedehydrogenase", "setting": "[1]; D-galactosamine mice, 100 μg/kg, versus D-galactosamine + physiological solution", "value": 2, "unit": "times"},
      {"measurement": "Concentration of alanine transaminase", "setting": "[1]", "value": "115.4 ± 5.2", "unit": "JU/e"},
      {"measurement": "Concentration of glutamatedehydrogenase", "setting": "[1]", "value": "62.8 ± 4.9", "unit": "JU/e"},
      {"measurement": "Effect on both parameters (alanine transaminase, glutamatedehydrogenase)", "setting": "[2]; CCl4 rats, 10-300 μg/kg", "value": "lowers both parameters depending on the dose"},
      {"measurement": "Number of rats survived after 48 hours", "setting": "[2]; CCl4 rats, dose 10 μg/kg", "value": 6},
      {"measurement": "Number of rats survived after 48 hours", "setting": "[2]; CCl4 rats, dose 30 μg/kg", "value": 9},
      {"measurement": "Number of rats survived after 48 hours", "setting": "[2]; CCl4 rats, dose 100 μg/kg", "value": 13},
      {"measurement": "Number of rats survived after 48 hours", "setting": "[2]; CCl4 rats, dose 300 μg/kg", "value": 13},
      {"measurement": "Lethal cases (%)", "setting": "[2]; CCl4 rats, dose 10 μg/kg", "value": 54, "unit": "%"},
      {"measurement": "Lethal cases (%)", "setting": "[2]; CCl4 rats, dose 30 μg/kg", "value": 30, "unit": "%"},
      {"measurement": "Lethal cases (%)", "setting": "[2]; CCl4 rats, dose 100 μg/kg", "value": 0, "unit": "%"},
      {"measurement": "Lethal cases (%)", "setting": "[2]; CCl4 rats, dose 300 μg/kg", "value": 0, "unit": "%"},
      {"measurement": "Lethal cases", "setting": "[2]; CCl4 rats, doses of 100 and 300 μg/kg", "value": "no lethal cases are observed"},
      {"measurement": "Lethality", "setting": "[2]", "value": 0, "unit": "%"},
      {"measurement": "Maximum effective dose", "setting": "[2]; comparison with somatostatin", "value": 0.1, "unit": "mg/kg"},
      {"measurement": "Maximum effective dose lower than that of somatostatin", "setting": "[2]; hexapeptide versus somatostatin", "value": 15, "unit": "times"},
      {"measurement": "Concentration of alanine transaminase", "setting": "[2]; 10 μg/kg", "value": "4141.5 ± 1094.8", "unit": "JU/e"},
      {"measurement": "Concentration of glutamatedehydrogenase", "setting": "[2]; 10 μg/kg", "value": "1962.0 ± 494.7", "unit": "JU/e"},
      {"measurement": "Concentration of alanine transaminase", "setting": "[2]; 30 μg/kg", "value": "3037.8 ± 580.8", "unit": "JU/e"},
      {"measurement": "Concentration of glutamatedehydrogenase", "setting": "[2]; 30 μg/kg", "value": "1487.3 ± 301.5", "unit": "JU/e"},
      {"measurement": "Concentration of alanine transaminase", "setting": "[2]; 100 μg/kg", "value": "2339.8 ± 333.4", "unit": "JU/e"},
      {"measurement": "Concentration of glutamatedehydrogenase", "setting": "[2]; 100 μg/kg", "value": "874.3 ± 118.3", "unit": "JU/e"},
      {"measurement": "Concentration of alanine transaminase", "setting": "[2]; 300 μg/kg", "value": "2110.1 ± 374.5", "unit": "JU/e"},
      {"measurement": "Concentration of glutamatedehydrogenase", "setting": "[2]; 300 μg/kg", "value": "603.3 ± 118.0", "unit": "JU/e"},
      {"measurement": "Acute toxicity LD50", "setting": "Acute toxicity LD50", "value": 120, "unit": "mg/kg"},
      {"measurement": "Changes on the part of basic hemodynamic characteristics", "setting": "[3]", "value": "no changes were observed"},
      {"measurement": "Changes on the part of the cell composition of the blood", "setting": "[3]", "value": "no changes were observed"},
      {"measurement": "Solubility", "setting": "Solubility of the powder; benzene", "value": "insoluble"},
      {"measurement": "Solubility", "setting": "Solubility of the powder; distilled water", "value": "well soluble"},
      {"measurement": "Solubility", "setting": "Solubility of the powder; ethanol", "value": "well soluble"},
      {"measurement": "Solubility", "setting": "Solubility of the powder; ether", "value": "insoluble"},
      {"measurement": "Solubility", "setting": "Solubility of the powder; ethylacetate", "value": "insoluble"},
      {"measurement": "Solubility", "setting": "Solubility of the powder; physiological solution", "value": "well soluble"}
    ]}
  ]
}
